Test results from patent publication US6737383B1, “Herbicidal oxadiazolidines” (priority 1999, dated 2004).

Tests used:
bedstraw = experiment: Test B pre/postemergence bedstraw; format: in vivo, Galium aparine
Method in brief: (§1)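 Test chemicals in a non-phytotoxic solvent mixture with surfactant were sprayed preemergence onto planted seeds and postemergence onto plants 2 to 18 cm tall (1- to 4-leaf stage). After twelve to sixteen days in a greenhouse, injury was visually rated against untreated controls from 0 (no effect) to 10 (complete control).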

blackgrass = experiment: Test B pre/postemergence blackgrass; format: in vivo, Alopecurus myosuroides
Method in brief: as §1

surinam grass = experiment: Test B pre/postemergence surinam grass; format: in vivo, Brachiaria decumbens
Method in brief: as §1

cocklebur = experiment: Test B pre/postemergence cocklebur; format: in vivo, Xanthium strumarium
Method in brief: as §1

corn = experiment: Test B pre/postemergence corn; format: in vivo, Zea mays
Method in brief: as §1

crabgrass = experiment: Test B pre/postemergence crabgrass; format: in vivo, Digitaria sanguinalis
Method in brief: as §1

giant foxtail = experiment: Test B pre/postemergence giant foxtail; format: in vivo, Setaria faberii
Method in brief: as §1

morningglory = experiment: Test B pre/postemergence morningglory; format: in vivo, Ipomoea hederacea
Method in brief: as §1

pigweed = experiment: Test B pre/postemergence pigweed; format: in vivo, Amaranthus retroflexus
Method in brief: as §1

rape = experiment: Test B pre/postemergence rape; format: in vivo, Brassica napus
Method in brief: as §1

sugar beet = experiment: Test B pre/postemergence sugar beet; format: in vivo, Beta vulgaris
Method in brief: as §1

velvetleaf = experiment: Test B pre/postemergence velvetleaf; format: in vivo, Abutilon theophrasti
Method in brief: as §1

wild oat = experiment: Test B pre/postemergence wild oat; format: in vivo, Avena fatua
Method in brief: as §1

rice = experiment: Test B flood test rice; format: in vivo, Oryza sativa
Method in brief: (§2)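 Each value is a visual injury score relative to controls, with 10 meaning complete control and 0 no effect. Evaluation took place twelve to sixteen days after the 2-leaf-stage plants were treated and kept in the greenhouse.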

smallflower flatsedge = experiment: Test B flood test smallflower flatsedge; format: in vivo, Cyperus difformis
Method in brief: as §2

bamyardgrass = experiment: Test B flood test barnyardgrass; format: in vivo, Echinochloa crus-galli
Method in brief: as §2

[1] = Postemergence, Rate 125 g/ha, scale of 0 to 10 where 0 is no effect and 10 is complete control
[2] = Preemergence, Rate 62 g/ha, scale 0 to 10 (0 no effect, 10 complete control)
[3] = Preemergence, Rate 125 g/ha, 0 is no effect, 10 is complete control
[4] = Preemergence, Rate 250 g/ha, scale 0 to 10, 0 is no effect, 10 is complete control
[5] = Preemergence, Rate 500 g/ha, scale 0 to 10 (0 no effect, 10 complete control)
[6] = Rate 62 g/ha, Postemergence, scale of 0 to 10 where 0 is no effect and 10 is complete control
[7] = Rate 250 g/ha, Postemergence, scale 0 to 10, 0 is no effect, 10 is complete control
[8] = Rate 500 g/ha, Postemergence, scale 0 to 10
[9] = Postemergence (flood test species), Rate 125 g/ha, scale of 0 to 10 where 0 is no effect and 10 is complete control
[10] = Rate 62 g/ha, Postemergence section, flood test species, scale of 0 to 10 where 0 is no effect and 10 is complete control
[11] = Rate 250 g/ha, Postemergence (flood test), scale 0 to 10, 0 is no effect, 10 is complete control
[12] = Rate 500 g/ha, listed under Postemergence (flood test species), scale 0 to 10

CN(C(=O)n1oc(=O)n(Cc2ccccc2)c1=O)c1ccccc1 [Compound 153]
0: Bedstraw plant response rating (bedstraw; [1]) | Bedstraw plant response rating (bedstraw; [2]) | Bedstraw plant response rating (0 to 10 scale) (bedstraw; [3]) | Bedstraw plant response rating (bedstraw; [4]) | Bedstraw plant response rating (bedstraw; [5]) | Bedstraw plant response rating (bedstraw; [6]) | Plant response rating, Bedstraw (bedstraw; [7]) | Bedstraw plant response rating (bedstraw; Rate 500 g/ha, Postemergence, scale 0 to 10, 0 no effect, 10 complete control) | Blackgrass plant response rating (blackgrass; [1]) | Blackgrass plant response rating (blackgrass; [2]) | Blackgrass plant response rating (0 to 10 scale) (blackgrass; [3]) | Blackgrass plant response rating (blackgrass; [4]) | Blackgrass plant response rating (blackgrass; [5]) | Blackgrass plant response rating (blackgrass; [6]) | Plant response rating, Blackgrass (blackgrass; [7]) | Blackgrass plant response rating (blackgrass; [8]) | B. signalgrass plant response rating (surinam grass; [1]) | B. signalgrass plant response rating (surinam grass; [2]) | B. signalgrass plant response rating (0 to 10 scale) (surinam grass; [3]) | B. signalgrass plant response rating (surinam grass; [4]) | B. signalgrass plant response rating (surinam grass; [5]) | B. signalgrass plant response rating (surinam grass; [6]) | Plant response rating, B. signalgrass (surinam grass; [7]) | B. signalgrass plant response rating (surinam grass; Rate 500 g/ha, Postemergence, scale of 0 to 10 where 0 is no effect and 10 is complete control) | Cocklebur plant response rating (cocklebur; [1]) | Cocklebur plant response rating (cocklebur; [2]) | Cocklebur plant response rating (0 to 10 scale) (cocklebur; [3]) | Cocklebur plant response rating (cocklebur; [4]) | Cocklebur plant response rating (cocklebur; [5]) | Cocklebur plant response rating (cocklebur; [6]) | Plant response rating, Cocklebur (cocklebur; [7]) | Cocklebur plant response rating (cocklebur; [8]) | Corn plant response rating (corn; [1]) | Corn plant response rating (corn; [2]) | Corn plant response rating (0 to 10 scale) (corn; [3]) | Corn plant response rating (corn; [4]) | Corn plant response rating (corn; [5]) | Corn plant response rating (corn; [6]) | Plant response rating, Corn (corn; [7]) | Corn plant response rating (corn; [8]) | Crabgrass plant response rating (crabgrass; [1]) | Crabgrass plant response rating (crabgrass; [2]) | Crabgrass plant response rating (0 to 10 scale) (crabgrass; [3]) | Crabgrass plant response rating (crabgrass; [4]) | Crabgrass plant response rating (crabgrass; [5]) | Crabgrass plant response rating (crabgrass; [6]) | Plant response rating, Crabgrass (crabgrass; [7]) | Crabgrass plant response rating (crabgrass; [8]) | Giant foxtail plant response rating (giant foxtail; [1]) | Giant foxtail plant response rating (giant foxtail; [2]) | Giant foxtail plant response rating (0 to 10 scale) (giant foxtail; [3]) | Giant foxtail plant response rating (giant foxtail; [4]) | Giant foxtail plant response rating (giant foxtail; [5]) | Giant foxtail plant response rating (giant foxtail; [6]) | Plant response rating, Giant foxtail (giant foxtail; [7]) | Giant foxtail plant response rating (giant foxtail; [8]) | Morningglory plant response rating (morningglory; [1]) | Morningglory plant response rating (morningglory; [2]) | Morningglory plant response rating (0 to 10 scale) (morningglory; [3]) | Morningglory plant response rating (morningglory; [4]) | Morningglory plant response rating (morningglory; [5]) | Morningglory plant response rating (morningglory; [6]) | Plant response rating, Morningglory (morningglory; [7]) | Morningglory plant response rating (morningglory; [8]) | Redroot pigweed plant response rating (pigweed; [1]) | Redroot pigweed plant response rating (pigweed; [2]) | Redroot pigweed plant response rating (0 to 10 scale) (pigweed; [3]) | Redroot pigweed plant response rating (pigweed; [4]) | Redroot pigweed plant response rating (pigweed; [5]) | Redroot pigweed plant response rating (pigweed; [6]) | Plant response rating, Redroot pigweed (pigweed; [7]) | Redroot pigweed plant response rating (pigweed; [8]) | Rape plant response rating (rape; [1]) | Rape plant response rating (rape; [2]) | Rape plant response rating (0 to 10 scale) (rape; [3]) | Rape plant response rating (rape; [4]) | Rape plant response rating (rape; [5]) | Rape plant response rating (rape; [6]) | Plant response rating, Rape (rape; [7]) | Rape plant response rating (rape; [8]) | Sugarbeets plant response rating (sugar beet; [1]) | Sugarbeets plant response rating (sugar beet; [2]) | Sugarbeets plant response rating (0 to 10 scale) (sugar beet; [3]) | Sugarbeets plant response rating (sugar beet; [4]) | Sugarbeets plant response rating (sugar beet; [5]) | Sugarbeets plant response rating (sugar beet; [6]) | Plant response rating, Sugarbeets (sugar beet; [7]) | Sugarbeets plant response rating (sugar beet; [8]) | Velvetleaf plant response rating (velvetleaf; [2]) | Velvetleaf plant response rating (0 to 10 scale) (velvetleaf; [3]) | Velvetleaf plant response rating (velvetleaf; [4]) | Velvetleaf plant response rating (velvetleaf; [5]) | Velvetleaf plant response rating (velvetleaf; [6]) | Plant response rating, Velvetleaf (velvetleaf; [7]) | Velvetleaf plant response rating (velvetleaf; [8]) | Wild oats plant response rating (wild oat; [2]) | Wild oats plant response rating (0 to 10 scale) (wild oat; [3]) | Wild oats plant response rating (wild oat; [4]) | Wild oats plant response rating (wild oat; [5]) | Wild oats plant response rating (wild oat; [6]) | Plant response rating, Wild oats (wild oat; [7]) | Wild oats plant response rating (wild oat; [8]) | Rice plant response rating (rice; [9]) | Rice plant response rating (rice; [10]) | Plant response rating, Rice (rice; [11]) | Rice plant response rating (rice; [12]) | S. Flatsedge plant response rating (smallflower flatsedge; [9]) | S. Flatsedge plant response rating (smallflower flatsedge; [10]) | Plant response rating, S. Flatsedge (smallflower flatsedge; [11]) | S. Flatsedge plant response rating (smallflower flatsedge; [12]) | Barnyardgrass plant response rating (bamyardgrass; [9]) | Barnyardgrass plant response rating (bamyardgrass; [10]) | Plant response rating, Barnyardgrass (bamyardgrass; [11]) | Barnyardgrass plant response rating (bamyardgrass; Rate 500 g/ha, listed under Postemergence (flood test species), scale 0 to 10, 0 no effect, 10 complete control)
